Assay results from ChEMBL document CHEMBL1130472, “Potent selective thienoxazinone inhibitors of herpes proteases” (Bioorg Med Chem Lett, 1997).
pIC50: −log10 of the molar value.

Legend:
Human alphaherpesvirus 2 [1] = experiment: Percent inhibition for peptidolytic activity against herpes simplex type-2(HSV-2) protease at 10 uM.; type: functional
Cytomegalovirus [2] = experiment: Percent inhibition for peptidolytic activity against cytomegalovirus (CMV) protease at 10 uM.; type: functional; details: Human betaherpesvirus 5
[3] = Selectivity ratio of inhibitory concentration against elastase and HSV-1
[4] = Tested for peptidolytic activity against subtilisin at a concentration of 1 mM; no inhibition
[5] = Half life was determined; type: ADME; details: rat
[6] = Inhibitory concentration for peptidolytic activity against elastase
[7] = target: T1, Capsid scaffolding protein (Herpes simplex virus (type 1 / strain 17), UniProt P10210); experiment: Inhibitory concentration for peptidolytic activity against herpes simplex type-1 (HSV-1) protease at 10 uM.; design: species or system Human alphaherpesvirus 1
T1 sequence (P10210 whole entry): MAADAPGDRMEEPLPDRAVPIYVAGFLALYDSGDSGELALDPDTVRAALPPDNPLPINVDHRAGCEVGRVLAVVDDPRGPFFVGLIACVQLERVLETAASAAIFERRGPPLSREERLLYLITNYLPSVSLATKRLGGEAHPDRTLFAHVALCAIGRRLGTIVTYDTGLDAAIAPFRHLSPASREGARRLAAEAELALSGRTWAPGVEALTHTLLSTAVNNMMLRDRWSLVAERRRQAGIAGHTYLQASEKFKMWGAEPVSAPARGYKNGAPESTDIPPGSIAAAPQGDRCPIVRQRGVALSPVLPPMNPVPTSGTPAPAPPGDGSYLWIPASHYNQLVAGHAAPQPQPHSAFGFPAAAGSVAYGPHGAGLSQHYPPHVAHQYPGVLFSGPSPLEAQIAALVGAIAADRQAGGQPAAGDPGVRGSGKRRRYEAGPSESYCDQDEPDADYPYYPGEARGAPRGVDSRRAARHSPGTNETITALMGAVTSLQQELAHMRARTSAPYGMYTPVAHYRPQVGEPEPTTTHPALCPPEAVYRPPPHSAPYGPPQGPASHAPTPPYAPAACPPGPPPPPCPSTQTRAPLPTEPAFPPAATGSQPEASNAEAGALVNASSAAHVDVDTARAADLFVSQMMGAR

Cytomegalovirus [8] = experiment: Inhibitory concentration for peptidolytic activity against cytomegalovirus (CMV) protease at 10 uM.; type: functional, organism-based; details: Human betaherpesvirus 5
Human alphaherpesvirus 2 [9] = experiment: Inhibitory concentration for peptidolytic activity against herpes simplex type-2(HSV-2) protease at 10 uM.; type: functional, organism-based

Q: Which inhibition at 10 µM (Human alphaherpesvirus 2 [1]) does the source give for `Cc1ccc(S(=O)(=O)N[C@@H](C)c2nc3ccsc3c(=O)o2)cc1` here?
A: 13%

Q: What about the inhibition at 10 µM (Cytomegalovirus [2]) of the same compound?
A: 30%

Q: For `C[C@H](NC(=O)OCc1ccccc1)C(=O)Nc1csc2c(=O)oc([C@H](C)NC(=O)OCc3ccccc3)nc12`, which inhibition at 10 µM (Human alphaherpesvirus 2 [1]) is on record?
A: 50%

Q: And the inhibition at 10 µM (Cytomegalovirus [2])?
A: 43%

Q: With `C[C@H](NC(=O)OCc1ccccc1)c1nc2ccsc2c(=O)o1` as the compound, how does the Ratio [3] read?
A: 250

Q: And the IC50 [4]?
A: Not Active

Q: And the half-life [5]?
A: > 100 h

Q: What about the pIC50 [6] of the same compound?
A: 3.92

Q: What about the pIC50 [7] of the same compound?
A: 6.32

Q: What about the pIC50 (Cytomegalovirus [8]) of the same compound?
A: 5.03

Q: And the pIC50 (Human alphaherpesvirus 2 [9])?
A: 6.38

Q: With `NC(=O)CC[C@H](NC(=O)OCc1ccccc1)c1nc2ccsc2c(=O)o1` as the compound, how does the pIC50 [7] read?
A: 5.20

Q: With `C[C@H](Nc1ccc([N+](=O)[O-])cc1[N+](=O)[O-])c1nc2ccsc2c(=O)o1` as the compound, how does the pIC50 (Cytomegalovirus [8]) read?
A: 5.48

Q: And the pIC50 (Human alphaherpesvirus 2 [9])?
A: 5.54

Q: What does the source list for `NC(=O)C[C@H](NC(=O)OCc1ccccc1)c1nc2ccsc2c(=O)o1`?
A: pIC50 [7]: 5.00; pIC50 (Cytomegalovirus [8]): 4.74

Q: What does the source list for `C[C@H](NC(=O)OCc1ccccc1)c1nc2ccccc2c(=O)o1`?
A: Ratio [3]: 1.1; half-life [5]: 14 h; pIC50 [6]: 4.35

Q: With `C[C@H](NC(=O)Nc1ccccc1)c1nc2ccsc2c(=O)o1` as the compound, how does the pIC50 (Cytomegalovirus [8]) read?
A: < 4.00

Q: And the pIC50 (Human alphaherpesvirus 2 [9])?
A: < 4.00

Q: What does the source list for `Cc1cccc2nc([C@H](C)NC(=O)OCc3ccccc3)oc(=O)c12`?
A: Ratio [3]: 0.002; half-life [5]: 33 h; pIC50 [6]: 6.66

Q: With `O=C(N[C@@H](Cc1ccccc1)c1nc2ccsc2c(=O)o1)OCc1ccccc1` as the compound, how does the pIC50 [7] read?
A: < 3.52

Q: And the pIC50 (Cytomegalovirus [8])?
A: 5.46

Q: With `Cc1csc2c(=O)oc([C@H](C)NC(=O)OCc3ccccc3)nc12` as the compound, how does the pIC50 [7] read?
A: 5.51

Q: And the pIC50 (Cytomegalovirus [8])?
A: 4.92

Q: What does the source list for `C[C@H](NC(=O)OC(C)(C)C)c1nc2ccsc2c(=O)o1`?
A: inhibition at 10 µM (Human alphaherpesvirus 2 [1]): 32%; inhibition at 10 µM (Cytomegalovirus [2]): 15%

Q: What does the source list for `CC(C)[C@H](NC(=O)OCc1ccccc1)c1nc2ccsc2c(=O)o1`?
A: pIC50 [7]: 4.51; pIC50 (Cytomegalovirus [8]): 4.59

Q: With `C[C@H](NC(=O)OCc1ccccc1)c1nc2cc(-c3ccccc3)sc2c(=O)o1` as the compound, how does the pIC50 [7] read?
A: 5.48

Q: What about the pIC50 (Cytomegalovirus [8]) of the same compound?
A: < 3.52

Q: With `O=C(NCc1nc2ccsc2c(=O)o1)OCc1ccccc1` as the compound, how does the pIC50 [7] read?
A: 5.57

Q: What about the pIC50 (Cytomegalovirus [8]) of the same compound?
A: 4.35

Q: For `C[C@H](NC(=O)NCc1ccccc1)c1nc2ccsc2c(=O)o1`, which inhibition at 10 µM (Human alphaherpesvirus 2 [1]) is on record?
A: 1%

Q: What about the inhibition at 10 µM (Cytomegalovirus [2]) of the same compound?
A: 20%

Q: Which results are given for `O=C(N[C@@H](CO)c1nc2ccsc2c(=O)o1)OCc1ccccc1`?
A: pIC50 [7]: 6.19; pIC50 (Cytomegalovirus [8]): 4.70; pIC50 (Human alphaherpesvirus 2 [9]): 6.48

Q: Which results are given for `C[C@H](NC(=O)OCc1ccccc1)c1nc2c(Cl)c(NC(=O)[C@@H](C)NC(=O)OCc3ccccc3)sc2c(=O)o1`?
A: pIC50 (Cytomegalovirus [8]): 5.89; pIC50 (Human alphaherpesvirus 2 [9]): 5.80
